Laboratory results as given in US9540389B2, “Antimicrobial potentiators” (priority 2013, dated 2017).

Key:
Escherichia coli AB1157 = assay: MIC assay (microbroth dilution) ± 25 μM EPI; format: cell-based; conditions: for MICs (μg/ml) ± EPIs: MBX2319 / MICs (μg/ml) ± EPIs: PAβN / MICs (μg/ml) ± EPIs: None: E. coli AB1157 (WT), geometric mean; for MICs (μg/ml) ± EPIs: MBX2319: + 25 μM MBX2319; for MIC: Escherichia coli, AB1157, read-out: MICs (μg/ml) ± EPIs: None; for MICs (μg/ml) ± EPIs: PAβN: + 25 μM PAβN; for MIC Ratio MBX2319 / MIC Ratio PAβN: E. coli AB1157; for MIC Ratio MBX2319: MIC no cmpd/MIC + 25 μM MBX2319; for MIC Ratio PAβN: MIC no cmpd/MIC + 25 μM PAβN; for MICs (μg/ml) ± EPIs: None: no EPI
Source text: (§1) • Strains and Reagents. The following strains were obtained from the Keio collection (Baba, et al.: Construction of Escherichia coli K-12 in-frame, single-gene knockout mutants: the Keio collection. In Mol Syst Biol, vol. 2, pp. 2006 0008, (2006)): JW0451 (ΔacrB::kan), JW5503 (ΔtolC::kan), JW3234 (ΔacrF::kan), JW2661 (ΔemrB::kan), JW0863 (ΔmacB::kan). The deletion mutations in each of these strains were transferred to AB1157 using P1 phage transduction (see Table 1). The construction of the E. coli cell-based reporter strain (SOS-XXX) that was used for high throughput screening is described in detail in the supplementary information. […] Irgasan was a generous gift from Ciba Speciality Chemicals, Inc. (High Point, N.C.). Hoechst 33342 (H33342) was purchased from Molecular Probes (Eugene, Oreg.). […] Luria Broth (Miller) and agar were purchased as prepared dehydrated media from Becton Dickenson (Franklin Lakes, N.J.). The compound libraries used in high-throughput screens were purchased from Chembridge (San Diego, Calif.), ChemDiv (San Diego, Calif.), and TimTec (Newark, Del.). MBX2319 was synthesized by Microbiotix, Inc. • Antibacterial Activity Assays. The minimal inhibitory concentration (MIC) of antibacterial agents and biocides were determined using the microbroth dilution method essentially as described in the CLSI protocol M7-A7 (CLSI: Method for dilution antimicrobial susceptibility testing for bacteria that grow aerobically; Approved standard-document M7-A7. In Clinical and Laboratory Standards Institute document M7-A7, Clinical and Laboratory Standards Institute, Wayne, Pa., (2006)), with the following exceptions. LB media was used instead of MHB. […] The final concentration of DMSO in each assay was 2%. […] MIC assays were performed in triplicate and the geometric mean was calculated. Checkerboard MIC assays using an EPI and an antibacterial agent were performed essentially as described (Pillai, et al.: Antimicrobial Combinations. In Antibiotics in Laboratory Medicine, ed. by V. Lorian, pp. 365-440, Lippincott Williams & Wilkins, Philadelphia, Pa., (2005)), with the same modifications used for the MIC assays described above. • Time-Kill Assays. Killing curve assays were performed essentially as described (Pillai, et al.: Antimicrobial Combinations. In Antibiotics in Laboratory Medicine, ed. by V. Lorian, pp. 365-440, Lippincott Williams & Wilkins, Philadelphia, Pa., (2005)). Exponential bacterial cultures grown in LB were diluted to a cell density of ˜1×10^7 in LB followed by addition of CIP and/or an EPI. Viability was monitored over 2-4 hours by making serial dilutions in saline and spotting 5 μl of each dilution onto the surface of an LB agar plate in triplicate. Colonies were counted after the plates were incubated at 37° C. for 16-18 hr, colony forming units (CFU) per ml were calculated, and the average and standard deviation for the three replicates was determined. For treatments that decreased CFU/ml below the limit of detection for the spot plating method, the 100 μl samples were diluted into 5 ml LB top agar, were poured onto LB agar plates, and incubated for 18 hr at 37° C. To calculate the fraction of the control for each sample, the average CFU/ml values for treated samples were divided by those from the same sample at 0 h (time=0). Each experiment was repeated at least three times, and a representative experiment is shown. • H33342 Accumulation Assay. The rate of accumulation of the fluorescent dye Hoechst 33342 (H33342), which is a substrate of a wide variety of bacterial efflux pumps (van den Berg van Saparoea, et al., Biochemistry, vol. 44, pp. 16931-16938, (2005)), can be used to estimate the activity of the major efflux pumps in E. coli and many other bacterial species. The H33342 accumulation assay was used to evaluate the effect of EPIs on the activity of the AcrAB-TolC efflux pump in several bacterial species essentially as described (Coldham, et al., J Antimicrob Chemother, vol. 65, pp. 1655-1663, (2010)). […]

[1] = system: Escherichia coli AB1157 ΔacrB; assay: MIC assay (microbroth dilution); format: cell-based; conditions: for MIC: Escherichia coli, read-out: MICs (μg/ml) ΔacrB None; for MIC Ratio ΔacrB: MIC WT/MIC ΔacrB; for MICs (μg/ml) ΔacrB None: ΔacrB strain, no EPI, geometric mean
Source text: as §1

Compound | MICs (μg/ml) ± EPIs: MBX2319 (Escherichia coli AB1157) | MIC (Escherichia coli AB1157) | MIC [1] | MICs (μg/ml) ± EPIs: PAβN (Escherichia coli AB1157) | MIC Ratio MBX2319 (Escherichia coli AB1157) | MIC Ratio PAβN (Escherichia coli AB1157) | MIC Ratio ΔacrB [1] | MICs (μg/ml) ± EPIs: None (Escherichia coli AB1157) | MICs (μg/ml) ΔacrB None [1]
Cc1onc(-c2ccccc2)c1C(=O)N[C@@H]1C(=O)N2[C@@H]1SC(C)(C)[C@@H]2C(=O)O [Oxacillin] | 64 µg/mL | 512 µg/mL | 4 µg/mL |  |  |  |  |  | 
CC[n+]1c(-c2ccccc2)c2cc(N)ccc2c2ccc(N)cc21 [Ethidium Br, Ethidium Bromide] | 256 µg/mL | 256 µg/mL | 8 µg/mL | 16 µg/mL | 1 | 16 | 32 |  | 
CN(C)c1ccc(C(=C2C=CC(=[N+](C)C)C=C2)c2ccc(N(C)C)cc2)cc1 [Crystal violet] | 8 µg/mL | 16 µg/mL | 1 µg/mL | 1 µg/mL | 2 | 16 | 16 |  | 
CN(C)[C@@H]1C(O)=C(C(N)=O)C(=O)[C@@]2(O)C(O)=C3C(=O)c4c(O)cccc4[C@@](C)(O)[C@H]3C[C@@H]12 [Tetracycline] |  |  | 0.5 µg/mL |  |  |  |  |  | 
CC1=C(C(=O)O)N2C(=O)[C@@H](NC(=O)[C@H](N)c3ccccc3)[C@H]2SC1 [Cephalexin] | 16 µg/mL | 32 µg/mL | 32 µg/mL | 16 µg/mL | 2 | 2 | 1 |  | 
Cc1onc(-c2ccccc2Cl)c1C(=O)N[C@@H]1C(=O)N2[C@@H]1SC(C)(C)[C@@H]2C(=O)O [Cloxacillin] | 128 µg/mL | 256 µg/mL | 4 µg/mL | 64 µg/mL | 2 | 4 | 64 |  | 
O=C(N[C@H](CO)[C@H](O)c1ccc([N+](=O)[O-])cc1)C(Cl)Cl [Cloramphenicol] | 2 µg/mL |  |  | 2 µg/mL | 4 | 4 | 4 | 8 µg/mL | 2 µg/mL
CCn1cc(C(=O)O)c(=O)c2cc(F)c(N3CCNCC3)cc21 [Norfloxacin] | 0.063 µg/mL | 0.063 µg/mL | 0.016 µg/mL | 0.063 µg/mL | 1 | 1 | 4 |  | 
CO[C@H]1/C=C/O[C@@]2(C)Oc3c(C)c(O)c4c(O)c(c(/C=N/N5CCN(C)CC5)c(O)c4c3C2=O)NC(=O)/C(C)=C\C=C\[C@H](C)[C@H](O)[C@@H](C)[C@@H](O)[C@@H](C)[C@H](OC(C)=O)[C@@H]1C [Rifampicin] | 8 µg/mL | 8 µg/mL | 8 µg/mL |  |  |  |  |  | 
CC1(C)S[C@@H]2[C@H](NC(=O)[C@H](N)c3ccc(O)cc3)C(=O)N2[C@H]1C(=O)O [Amoxacillin] | 4 µg/mL |  |  | 4 µg/mL | 1 | 1 | 0.5 | 4 µg/mL | 8 µg/mL
CCn1cc(C(=O)O)c(=O)c2ccc(C)nc21 [Nalidixic acid] | 8 µg/mL | 16 µg/mL | 8 µg/mL | 1 µg/mL | 2 | 16 | 2 |  | 
Gentamicin | 8 µg/mL |  |  | 8 µg/mL | 0.5 | 0.5 | 1 | 4 µg/mL | 4 µg/mL
Oc1cc(Cl)ccc1Oc1ccc(Cl)cc1Cl [Irgasan] | 0.125 µg/mL |  |  | 0.031 µg/mL | 2 | 8 | 8 | 0.25 µg/mL | 0.031 µg/mL
